Here are results for six compounds from patent US12286435B2, “Compound having benzo seven-membered ring structure, preparation method therefor, and use thereof” (BIONNA (BEIJING) MEDICAL TECHNOLOGY CO., LTD., priority 2019, dated 2025).

SMILES strings stand for the structures.

The target of one test is BRD4 BD1 protein (Homo sapiens (Human), UniProt O60885). Put plainly: Fluorescence polarization binding affinity (Ki) with BRD4 BD1 protein. As to conditions: fluorescence polarization; Ki calculated from IC50.
The next test addresses BRD4 BD2 protein (Homo sapiens (Human), UniProt O60885). Put plainly: Fluorescence polarization binding affinity (Ki) with BRD4 BD2 protein. As to conditions: fluorescence polarization; Ki calculated from IC50.
Test [1] has as its system multiple myeloma MM.1S cell line. As to the kind of experiment: Cell viability (CCK-8), multiple myeloma MM.1S. The format is cell-based. As to conditions: Homo sapiens, MM1.S, 96 h, MM.1S cells, 4 days, CCK-8, 50% inhibition of cell growth. An outline of the steps: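 Cells (about 3000-5000 per well) exposed to 3-fold serial dilutions of compound for 4 days at 37° C, 5% CO2. CCK-8 added 2-4 h, absorbance at 450 nm, viability normalised to untreated cells after medium-only blank subtraction; IC50 is concentration giving 50% growth inhibition.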

The subject of test [2] is breast cancer MDA-MB-231 cell line. As to the kind of experiment: Cell viability (CCK-8), breast cancer MDA-MB-231. The format is cell-based. To be noted: Homo sapiens, 96 h; MDA-MB-231 cells, 4 days, CCK-8, 50% inhibition of cell growth. As to the method: (§1) 3. Determination of cell viability of the compound
(§2) The sample to be tested was dissolved with 100% dimethyl sulfoxide to prepare a 20 mM stock solution of the compound, which was diluted with 100% dimethyl sulfoxide to the highest compound concentration required for the experiment (2.5 mM).
(§3) First, 145 uL of a complete cell culture medium was added to wells B1-G1 of a 96-well flat-bottomed tansparent cell culture plate, and 100 uL of the complete medium was added to wells B2-G12, respectively. Then, 5 uL of the 2.5 mM solution of the compound was added to wells B1-D1 and E1-G1 respectively, and then diluted gradiently by 3-folds to B12-D12 and E12-G12 in sequence. Finally, 50 uL of the solution of the cells to be tested was added to each well, with about 3000-5000 cells per well, and a total volume of 150 uL per well.
(§4) In the experiment, in addition to the tested compound, two other control groups were set up: 1) a control group adding the cells and the complete medium, but without adding the compound; 2) a control group adding the complete medium only, without adding the cells and the compound. The 96-well plate was placed in a 37° C. cell culture incubator containing 5% carbon dioxide for 4 days, added with 15 uL of a CCK-8 reagent per well, and then incubated at 37° C. for 2-4 hours. The 96-well plate was read on a TECAN microplate reader, and the absorbance value at 450 nm wavelength was taken.
(§5) The effect of different concentrations of the compound on cell viability was calculated by the following equation: [absorption value of the experimental group−absorption value of pure cell culture medium without the cells or the compound]/[absorption value of the control group with the tumor cells but no testing compound−absorption value of pure cell culture medium without the cell or the compound]×100%.
(§6) The above data were precessed by software, and the IC50 value was the concentration of the compound corresponding to the 50% inhibition rate of cell growth.
(§7) Based on the above test method of the compound on cell viability, a variety of […] cancer cell lines were tested, using multiple myeloma MM.1S, breast cancer MDA-MB-231 and leukemia MV4-11 cell lines as exemples. Using this test method, the IC50 values of partial compounds in the examples of the present invention measured in multiple myeloma MM.1S, breast cancer MDA-MB-231 cell lines and leukemia MV4-11 cell lines were shown in Table 2.

Test [3] has as its system leukemia MV4-11 cell line. As to the kind of experiment: Cell viability (CCK-8), leukemia MV4-11. In kind it is cell-based. As to conditions: Homo sapiens, 96 h; MV4-11 cells, 4 days, CCK-8, 50% inhibition of cell growth. How it is done: as §1, §2, §3, §4, §5, §6, §7

What is called Ki is the equilibrium dissociation constant of an inhibitor or competing ligand from its target. What is called IC50 is the concentration needed to halve the response being measured. Read a low IC50 as higher potency. On to `Cc1nnn2c1-c1ccc(-c3cnn(C)c3)cc1C(Nc1ccccc1N(C)C)CC2` (stereo not shown) [LB01, N^1,N^1-dimethyl-N^2-(1-methyl-9-(1-methyl-1H-pyrazol-4-yl)-6,7-dihydro-5H-benzo[c][1,2,3]triazolo[1,5-a]azepin-7-yl)benzene-1,2-diamine], for which the Ki at BRD4 BD1 protein was 94.8 nM; on BRD4 BD2 protein, 26.9 nM. Besides, the IC50 in test [1] stood at 4.28 nM; in test [2], 450 nM.

For the compound `COc1ccc2c(c1)C(Nc1ccc(C#N)cc1)CCc1onc(C)c1-2` (stereo not shown) [FA06, 4-(8-methoxy-1-methyl-5,6-dihydro-4H-benzo[6,7]cyclohepta[1,2-d]isoxazol-6-yl)aminobenzonitrile], the Ki at BRD4 BD1 protein is 83.1 nM; on BRD4 BD2 protein it was 55.9 nM. For the same compound, the IC50 in test [1] turned out to be 6.05 nM; in test [2], 89 nM.

Regarding `CCn1cc(-c2ccc3c(c2)C(Nc2ccc(Cl)cc2)CCn2nnc(C)c2-3)cn1` (stereo not shown) [RB05, N-(4-chlorophenyl)-9-(1-ethyl-1H-pyrazol-4-yl)-1-methyl-6,7-dihydro-5H-benzo[c][1,2,3]triazolo[1,5-a]azepin-7-amine], the Ki is 23.2 nM at BRD4 BD1 protein and 5.73 nM at BRD4 BD2 protein. The IC50 in test [1] is 2.32 nM; in test [2], 1 nM; in test [3] it was under 0.1 nM.

With `Cc1nnn2c1-c1ccc(-c3cnc4[nH]cnc4c3)cc1C(Nc1ccc(Cl)cc1)CC2` (stereo not shown) [RB43, N-(4-chlorophenyl)-9-(3H-imidazo[4,5-b]pyridin-6-yl)-1-methyl-6,7-dihydro-5H-benzo[c][1,2,3]triazolo[1,5-a]azepin-7-amine], the values for the Ki at BRD4 BD1 protein and at BRD4 BD2 protein were 45.8 nM and 14 nM, respectively. The IC50 in test [1] was 1.1 nM; in test [2], 105 nM.

`Cc1nnn2c1-c1ccc(-c3cnn(C)c3)cc1C(Nc1ccc(Cl)cc1)CC2` (stereo not shown) [RA180, N-(4-chlorophenyl)-1-methyl-9-(1-methyl-1H-pyrazol-4-yl)-6,7-dihydro-5H-benzo[c][1,2,3]triazolo[1,5-a]azepin-7-amine]: the Ki was 33.7 nM on BRD4 BD1 protein and 7.6 nM on BRD4 BD2 protein. Also, the IC50 came to 2.34 nM in test [1] and 11 nM in test [2].

Regarding `COC(=O)c1ccc(NC2CCn3nnc(C)c3-c3ccc(-c4cnn(C)c4)cc32)cc1` (stereo not shown) [LB37, methyl 4-((1-methyl-9-(1-methyl-1H-pyrazol-4-yl)-6,7-dihydro-5H-benzo[c][1,2,3]triazolo[1,5-a]azepin-7-yl)amino)benzoate], the Ki at BRD4 BD1 protein was 45 nM; at BRD4 BD2 protein, 10.9 nM. The IC50 in test [1] was 2.03 nM; in test [2] it was 43 nM.
